Data reported in patent publication US20260325489A1, “PHARMACEUTICAL COMPOSITIONS COMPRISING 5-METHOXY-N,N-DIMETHYLTRYPTAMINE (5-MEO-DMT)” (Beckley Psytech Limited, priority 2023, published 2026).
Entries after “also recorded” stand apart in the source; their conditions may differ.

Columns and labels:
[1] = physical stability / hygroscopicity of salts and formulations
[2] = Phase 1 single ascending dose study of intranasal 5-MeO-DMT HCl in healthy subjects; type: in vivo; conditions: human plasma
From the text: (§1) The applicant has funded double-blind, randomised, Phase 1, single ascending dose studies to evaluate the safety, tolerability and pharmacokinetic profile of intranasal 5-MeO-DMT hydrochloride and intranasal 5-MeO-DMT benzoate in healthy subjects. […] It is desirable that a compound for use in treatment has dose-proportional pharmacokinetics, for example, to facilitate dose and dose regimen adjustment in patients. In an embodiment, there is provided a salt of 5-MeO-DMT with dose-proportional pharmacokinetics, optionally for use in the methods disclosed herein. In an embodiment, the salt of 5-MeO-DMT with dose-proportional pharmacokinetics is the benzoate or HBr salt, optionally the benzoate salt. A double-blind, randomised, Phase 1, single ascending dose study to evaluate the safety, tolerability and pharmacokinetic profile of a liquid intranasal 5-MeO-DMT HCl (5-MeO-DMT HCl, HPMC, water for injection (WFI) and a sodium hydroxide solution to adjust pH) pharmaceutical composition/formulation in healthy subjects was performed.

[3] = solid state by XRPD and DSC; type: physicochemical; conditions: XRPD and/or DSC, after spray drying or lyophilisation
Description: Unless otherwise stated herein all X-ray powder diffractograms (XRPD) were generated using an X-ray wavelength of 1.5406 Å; all modulated differential scanning calorimetry (DSC) thermograms were generated using a 2 °C/min heating rate.

[4] = type: in vivo, human (healthy subjects)
From the text: as §1
A double-blind, randomised, Phase 1, single ascending dose study to evaluate the safety, tolerability and pharmacokinetic profile of intranasal 5-MeO-DMT benzoate in healthy subjects was performed.

[5] = thermal decomposition properties of salt forms (TGA); type: physicochemical
From the text: The thermal decomposition properties of a range of salt forms of 5-MeO-DMT has been investigated and is summarised in the report below: […]

[6] = dissolution rate (UV-fibre optic dissolution apparatus, simulated nasal fluid); type: physicochemical
Description: The dissolution rate of SDD was determined using a method comprising the use of a UV-fibre optic-based dissolution apparatus (one such suitable device is the Rainbow® Dynamic Dissolution Monitor by Pion Inc) and simulated nasal fluid. The simulated nasal fluid comprises 7.45 g/L NaCl, 1.29 g/L KCl, 0.32 g/L CaCl2)×2H2O and deionised water.

COc1ccc2[nH]cc(CCN(C)C)c2c1.Cl [5-MeO-DMT HCl]
stability profile, in words [1]: issues relating to stability, discoloration and a reduction in desirable pharmacokinetic properties
mean concentration profiles ([2]; 5 mg, 8 mg, 10 mg, 11 mg and 14 mg): substantially similar
dose-proportional pharmacokinetics ([2]; liquid intranasal HCl formulation, 5, 8, 10, 11 and 14 mg): does not display dose-proportional pharmacokinetics

COc1ccc2[nH]cc(CCN(C)C)c2c1.O=C(O)c1ccccc1 [5-MeO-DMT benzoate]
solid state of the dispersion produced [3]: amorphous dispersion with no sign of the crystalline benzoate salt
physical / state stability, in words [1]: storage at 2-8° C., and protection from moisture, prevents recrystallisation and aggregation; also recorded: stable crystalline spray dried dispersion particle with no respirable API fines or significant aggregation
stability profile, in words [1]: good stability profile
mean Cmax ([4]; intranasal, 12 mg dosage, human plasma): 29 ng/mL
mean Tmax ([4]; intranasal, human plasma): 9.5 min
mass loss [5]: full mass loss
temperature at which decomposition starts [5]: ~220 °C
dissolution rate / profile, in words [6]: almost instantaneous dissolution rate; also recorded: a reduced dissolution rate as compared to the amorphous form of 5-MeO-DMT salts

Br.COc1ccc2[nH]cc(CCN(C)C)c2c1 [5-MeO-DMT hydrobromide]
physical / state stability, in words [1]: stable amorphous dispersion without the need for any additional drying step post spray drying; also recorded: state-stable when stored at above the temperature range 2-8 °C
temperature at which gross decomposition starts [5]: Melt 149 °C, gross decomp starts 220 °C

C1=Cc2cccc(OC[C@H]3CNCCO3)c2C1.O=S(=O)(O)c1ccccc1 [Benzenesulfonate]
temperature at which gross decomposition starts [5]: Melt 76 °C, gross decomp starts 280 °C

CN(C)CCc1c[nH]c2ccc(O)cc12 [Bufotenin]
detection of O-demethylated metabolite (Bufotenin) ([4]; 6 mg dose level of intranasal 5-MeO-DMT benzoate, after the 16 minutes time point): only detected at very low levels

O=C(O)CCC(=O)C(=O)O [Ketoglutarate]
temperature at which gross decomposition starts [5]: Melt 85 °C, gross decomp starts 170 °C

O=C(O)CC(O)C(=O)O (centres unmarked) [Malate]
temperature at which gross decomposition starts [5]: Melt 100 °C, gross decomp starts 250 °C

O=C(O)C(O)C(O)C(=O)O (centres unmarked) [Tartrate]
decomposition temperature [5]: Melt ~140 °C, decomp ~200 °C

Fumarate
decomposition temperature [5]: Decomp around 200 °C

Glycolate
temperature at which gross decomposition starts [5]: Melt 95 °C, gross decomp starts 170 °C

Oxalate
mass loss [5]: Melts 176 °C, full mass loss

Phosphate
decomposition temperature [5]: Decomp around 200 °C

Tosylate
temperature at which gross decomposition starts [5]: Melt 110 °C, gross decomp starts 280 °C
